# Experimental data as given in publication PMC6582342 (Nucleic Acids Research, 2019).
# Target: T1, TcEIF4E5 (Trypanosoma cruzi, UniProt A0A2V2VRR6)
# T1 sequence (A0A2V2VRR6 1-200): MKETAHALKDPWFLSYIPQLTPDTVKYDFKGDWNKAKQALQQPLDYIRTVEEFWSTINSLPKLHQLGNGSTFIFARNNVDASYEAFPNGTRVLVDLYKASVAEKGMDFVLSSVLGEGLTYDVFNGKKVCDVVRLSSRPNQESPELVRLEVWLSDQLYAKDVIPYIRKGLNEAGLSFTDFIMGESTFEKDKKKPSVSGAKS
# Experiment: X-ray crystal structure
# Type: binding
structure (smiles),measurement,value
C[n+]1cn([C@@H]2O[C@H](COP(=O)(O)OP(=O)(O)OP(=O)(O)O)[C@@H](O)[C@H]2O)c2nc(N)[nH]c(=O)c21 [m7GTP],Kd,21 ± 7 µM
